Patent US11013780B2, “Methods of treating female infertility” (Myovant Sciences GmbH, priority 2016, dated 2021)
Where a SMILES comes first, the peptide text is derived from it. [ ]: non-standard residue; d: D form. Arg(Me) = CNC(=N)NCCC[C@H](N)C(=O)O; Hyp = O=C(O)[C@@H]1C[C@@H](O)CN1; azaGly = NNC(=O)O

Key:
[1] = Pharmacokinetics in monkeys after SC and IV administration; settings: monkey, in vivo
Excerpt: The PK of API-MA was studied in monkeys after SC and IV administration.

[2] = Pharmacokinetics in dogs after SC and IV administration; settings: dog, in vivo
Excerpt: The PK of API-MA was studied in dogs after SC and IV administration.

[3] = Multiple-dose PK, 2-hour SC infusion once daily for 14 days, Japanese prostate cancer patients; type: in vivo, human; settings: male, human, in vivo, sc; for dose excreted: Mean percent cumulative urinary excretion at 24 hours postdose
Method: It was an open-label, ascending dose study of API-MA administered via 2-hour SC infusion once daily for 14 days that was expected to suppress testosterone in Japanese hormone-naïve prostate cancer patients. Six patients received API-MA at doses of 0.5 mg (3 patients) and 1.0 mg (3 patients) a day for 14 days.
To measure plasma concentrations of API-MA, blood specimens were collected at the following times: Day 1 (predose and 2, 4, 6, 10 hours postdose); days 2, 4, 6, 8, 10, and 12 (predose); day 14 (predose and 2, 4, 6, 10, 24, 48 hours postdose); day 21; and day 28. To measure urinary excretion of API-MA, urine specimens were collected at the following times: Day 1 (predose and 0 to 4, 4 to 8, 8 to 12, 12 to 24 hours postdose) and day 14 (0 to 4, 4 to 8, 8 to 12, 12 to 24 hours postdose).

[4] = Pharmacokinetics in rats after SC and IV administration; settings: rat, in vivo
Method: The PK of API-MA was studied in rats after SC and IV administration.
The PK linearity of API-MA was also investigated in rats after IV administration. The plasma C5min and AUC(0-24) values increased dose-proportionally. […] The elimination T1/2 values were 0.4 hours at 0.01 and 0.1 mg/kg and 0.5 hours at 1 mg/kg. These findings indicate that the PK of API-FB was linear in rats after single IV administration over the dose range of 0.01 to 1 mg/kg. The greater than dose-proportional increase in the first-pass kinetics with SC administration would indicate nonlinear PK in rats after SC administration.

[5] = iv, 1 mg/kg, T½ γ (elimination)

CNC(=N)NCCC[C@H](NC(=O)[C@H](CC(C)C)NC(=O)NNC(=O)[C@H](Cc1ccccc1)NC(=O)[C@@H](NC(=O)[C@H](CC(N)=O)NC(=O)[C@@H]1C[C@@H](O)CN1C(=O)[C@@H](Cc1ccc(O)cc1)NC(C)=O)[C@@H](C)O)C(=O)N[C@@H](Cc1c[nH]c2ccccc12)C(N)=O [Compound 1, 2-(N-Acetyl-D-tyrosyl-trans-4-hydroxy-L-prolyl-L-asparaginyl-L-threonyl-L-phenylalanyl)-hydrazinocarbonyl-L-leucyl-Nω-methyl-L-arginyl-L-tryptophanamide] (Ac-[dY][Hyp]NTF[azaGly]L[Arg(Me)]W-NH2)
AUC(0-t) ([1]; iv, 1 mg/kg): 3160 ± 594 ng·h/mL
Cmax at 5 min ([1]; iv, 1 mg/kg): 5030 ± 787 ng/mL
half-life ([1]; iv, 1 mg/kg, T½ α): 0.3 h
half-life ([1]; iv, 1 mg/kg, T½ β): 1.2 ± 0.1 h
half-life [1, 5]: 3.2 ± 0.1 h
AUC(0-t) ([1]; sc, 0.1 mg/kg): 295 ± 27 ng·h/mL
Cmax ([1]; sc, 0.1 mg/kg): 123 ± 27.3 ng/mL
Tmax ([1]; sc, 0.1 mg/kg): 0.4 ± 0.1 h
bioavailability ([1]; sc, 0.1 mg/kg): 94.9 ± 12.4%
half-life ([1]; sc, 0.1 mg/kg, T½ β): 1.6 ± 0.3 h
AUC(0-t) ([1]; sc, 1 mg/kg): 2790 ± 262 ng·h/mL
Cmax ([1]; sc, 1 mg/kg): 1320 ± 316 ng/mL
Tmax ([1]; sc, 1 mg/kg): 0.3 h
bioavailability ([1]; sc, 1 mg/kg): 90.1 ± 15.4%
half-life ([1]; sc, 1 mg/kg, T½ β): 1.4 ± 0.2 h
half-life ([1]; sc, 1 mg/kg, T½ γ): 2.5 ± 0.2 h
AUC(0-t) ([1]; sc, 10 mg/kg): 31600 ng·h/mL
Cmax ([1]; sc, 10 mg/kg): 12100 ng/mL
Tmax ([1]; sc, 10 mg/kg): 0.4 ± 0.1 h
bioavailability ([1]; sc, 10 mg/kg): 102 ± 14.3%
half-life ([1]; sc, 10 mg/kg, T½ β): 1.5 ± 0.3 h
half-life ([1]; sc, 10 mg/kg, T½ γ): 2.6 ± 0.3 h
AUC(0-t) ([2]; iv, 1 mg/kg): 3090 ± 80 ng·h/mL
Cmax at 5 min ([2]; iv, 1 mg/kg): 4250 ± 543 ng/mL
half-life ([2]; iv, 1 mg/kg, T½ α): 0.2 h
half-life ([2]; iv, 1 mg/kg, T½ β): 1.1 h
half-life [2, 5]: 3 ± 0.1 h
AUC(0-t) ([2]; sc, 0.1 mg/kg): 252 ± 34 ng·h/mL
Cmax ([2]; sc, 0.1 mg/kg): 86.6 ± 19 ng/mL
Tmax ([2]; sc, 0.1 mg/kg): 0.8 ± 0.3 h
bioavailability ([2]; sc, 0.1 mg/kg): 81.5 ± 11.5%
half-life ([2]; sc, 0.1 mg/kg, T½ β): 1.4 ± 0.2 h
AUC(0-t) ([2]; sc, 1 mg/kg): 2600 ± 219 ng·h/mL
Cmax ([2]; sc, 1 mg/kg): 883 ± 251 ng/mL
Tmax ([2]; sc, 1 mg/kg): 0.8 ± 0.3 h
bioavailability ([2]; sc, 1 mg/kg): 84 ± 8.1%
half-life ([2]; sc, 1 mg/kg, T½ β): 1.4 ± 0.3 h
half-life ([2]; sc, 1 mg/kg, T½ γ): 2.6 ± 0.2 h
AUC(0-t) ([2]; sc, 10 mg/kg): 28600 ng·h/mL
Cmax ([2]; sc, 10 mg/kg): 8840 ± 1200 ng/mL
Tmax ([2]; sc, 10 mg/kg): 1 h
bioavailability ([2]; sc, 10 mg/kg): 92.7 ± 7.7%
half-life ([2]; sc, 10 mg/kg, T½ β): 1.5 ± 0.4 h
half-life ([2]; sc, 10 mg/kg, T½ γ): 2.6 ± 0.1 h
Mean percent cumulative urinary excretion at 24 hours postdose ([3]; 0.5 mg/day): 8.99%
dose excreted ([3]; 0.5 mg/day): 6.5%
Mean percent cumulative urinary excretion at 24 hours postdose ([3]; 1 mg/day): 9.41%
dose excreted ([3]; 1 mg/day): 8.86%
AUC(0-t) ([4]; iv, 1 mg/kg): 1460 ± 143 ng·h/mL
Cmax at 5 min ([4]; iv, 1 mg/kg): 2670 ± 234 ng/mL
AUC(0-t) ([4]; sc, 0.1 mg/kg): 123 ± 9 ng·h/mL
Cmax ([4]; sc, 0.1 mg/kg): 90 ± 12.5 ng/mL
Tmax ([4]; sc, 0.1 mg/kg): 0.5 h
AUC(0-t) ([4]; sc, 1 mg/kg): 804 ± 133 ng·h/mL
Cmax ([4]; sc, 1 mg/kg): 381 ± 75.5 ng/mL
Tmax ([4]; sc, 1 mg/kg): 0.9 ± 0.2 h
bioavailability ([4]; sc, 1 mg/kg): 55.3 ± 8.6%
AUC(0-t) ([4]; sc, 10 mg/kg): 309 ± 70 ng·h/mL
Cmax ([4]; sc, 10 mg/kg): 285 ± 58.6 ng/mL
Tmax ([4]; sc, 10 mg/kg): 0.3 h
